Data on one compound can be found in patent US20240116856A1 (Young BioPharma, LLC, priority 2020, published 2024).

In brackets after ≈: the same amount, converted by molar mass. Where two headings read alike, the source gives them in different places.

The target in one data set is T1, human TRPA1 (Homo sapiens, UniProt O75762).
T1 construct: expressed in transfected cells; host or cells: overexpressing cells
The experiment in a line: In vitro Ca2+ flux counter-screen in human TRPA1 overexpressing cells. It is filed as cell-based. Conditions: counter-screen; read-out: TRPA1 EC50.

A short description of data set [1]: Operant Pain Tolerance Assay. The format is in vivo. The following applies: intraplantar. How it is done: Model 3—The ability of YB-16 to increase pain tolerance was tested using a newly published Operant Pain Tolerance Assay (eNeuro 2020, 7, ENEURO.0210-19.2020). In the assay, mice were trained to seek a sucrose reward that was on a hot 42° C. plate (versus no reward on a neutral 30° C. plate). It was noticed that intraplantar YB-16 treated mice with paw inflammatory injury [induced by Complete Freund's adjuvant (CFA) 24 hrs prior to treatment] trended to spend 145% more time on the hot side of the assay but not necessarily additional time near the sucrose bottle compared to vehicle treated mice (FIG. 10B).

In another data set the test system is MDA-MB-231. The experiment in a line: Human cancer cell growth inhibition assay (ATP assay), MDA-MB-231. The format is cell-based. The following applies: Homo sapiens, MDA-MB-231, 96 h; 4 days; Means±SEM from three independent experiments; read-out: MDA-MB-231, IC50.
In a further data set the test system is NCI-H460. The experiment in a line: Human cancer cell growth inhibition assay (ATP assay), NCI-H460. The format is cell-based. Conditions: Homo sapiens, NCI-H460, 96 h; 4 days; Means±SEM from three independent experiments; read-out: NCl-H460, IC50.
A further data set concerns OVCAR-8. The experiment in a line: Human cancer cell growth inhibition assay (ATP assay), OVCAR-8. The format is cell-based. The following applies: Homo sapiens, OVCAR-8, 96 h; 4 days; Means±SEM from three independent experiments; read-out: OVCAR-8, IC50.
In the next data set the test system is NCI-H460 cell invasion. The experiment in a line: Cancer cell invasion assay, NCI-H460. The format is cell-based, human. The following applies: 24 h. How it is done: A cancer cell invasion assay was developed based on literature protocols (Methods 2005, 37, 208; EMBO J 2002, 21, 6289; Cellular Signalling 2012, 24, 1276.). Membrane matrix gel (Cat #A1413201, ThermoFisher) was diluted in ice-cold, serum-free RPMI 1640 Medium (Cat #31800022, ThermoFisher) at a concentration of 0.5-0.6 mg/mL. Then it was added to the upper compartment (100 μL per cup) of millicell inserts (Cat #PI8P01250, ThermoFisher) placed in a 24-well plate (Part no. 229123, Celltreat). The plate was incubated at 37° C. for 2 h to allow the liquid gel to solidify. RPMI 1640 Medium supplemented with 10% FBS (300 μL) was added to the well of the plate (lower compartment) as attractant, then DMSO or compounds were added. Human cancer cells (1×10^5 cells in 200 μL of RPMI 1640 Medium) were added to the upper compartment of the insert, then DMSO or compounds were added. After the plate was incubated at 37° C. for 24 h, the cells were fixed on the lower side of the insert membrane with 4% formaldehyde and stained with 1% crystal violet (Part no. IS12146, Innovating Science). The invaded cells on the lower side of the filter were counted under an inverted microscope equipped with either a 4× or a 10× objective (FIG. 11). The cell numbers from 5 random views were averaged and plotted as percentage against the DMSO control (FIG. 12A).

Data set [2] deals with Src protein activation in MDA-MB-231 cells. The experiment in a line: Cancer cell immunocytochemistry assay, Phospho-Src (Y416), MDA-MB-231. It is filed as cell-based, human. Conditions: YB-1 15 μM, capsaicin 50 μM, 1-6 h. On the procedure:
(§1) Human cancer cells (15,000 cells/well) in 96 well half area microplate (Cat #3882, Corning) were incubated overnight at 37° C., then compounds or DMSO control were added to the cell culture and incubated at 37° C. for 1-6 h. The cells were sequentially fixed with 4% formalin, permeabilized with 0.5% Triton X-100, blocked with 5% BSA in PBS, incubated with Human Phospho-Src (Y416) Antibody (Cat #MAB2685, R&D Systems) at rt for 2 h, incubated with the secondary antibody Goat Ant-Rabbit IgG H&L (Alexa Fluor 488) (Cat #ab150077, abeam) for 45 min, and incubated with DAPI (Cat #D9542, Sigma-Aldrich) for 5 min. Finally, the cells were washed and covered with PBS. The cell images were visualized on an inverted fluorescence microscope (Leica DMIL Fluorescent Inverted Microscope with Digital Camera, Leica Microsystems). Pictures were taken [FIGS. 14A-C. Green: Human Phospho-Src (Y416), the activated form of the Src protein; Blue: DAPI (stain nucleus of cell)]. The fluorescence intensity values from 5 random cells were averaged, subtracted by the background value (area between cells) and the blank value [the blank control without the Human Phospho-Src (Y416) Antibody], then plotted as percentage against the DMSO control to indicate the effects of compound treatment on the cellular Src kinase phosphorylation levels in the cancer cells (FIGS. 15A-D).

The test system of data set [3] is Src protein activation in OVCAR-8 cells. The experiment in a line: Cancer cell immunocytochemistry assay, Phospho-Src (Y416), OVCAR-8. It is filed as cell-based, human. Conditions: YB-1 15 μM, capsaicin 50 μM, 1-6 h. On the procedure: as §1
The conditions of data set [4]: intraplantar; for reduction of first phase spontaneous behavior: 5-10 g dose.
For data set [5] the following is noted: SubQ; YB-16 3, 6 mg/kg; capsaicin 2 mg/kg.
For data set [6] the following is noted: Scoville Heat Units, cited from earlier work.
The conditions of data set [7]: background; cited from earlier work.
Data set [8] deals with MDA-MB-231 breast cancer tumors. The following applies: literature; cited from earlier work.
The nature of data set [9]: Rodent eye wiping assay (pungency).

T1 sequence (O75762 whole entry): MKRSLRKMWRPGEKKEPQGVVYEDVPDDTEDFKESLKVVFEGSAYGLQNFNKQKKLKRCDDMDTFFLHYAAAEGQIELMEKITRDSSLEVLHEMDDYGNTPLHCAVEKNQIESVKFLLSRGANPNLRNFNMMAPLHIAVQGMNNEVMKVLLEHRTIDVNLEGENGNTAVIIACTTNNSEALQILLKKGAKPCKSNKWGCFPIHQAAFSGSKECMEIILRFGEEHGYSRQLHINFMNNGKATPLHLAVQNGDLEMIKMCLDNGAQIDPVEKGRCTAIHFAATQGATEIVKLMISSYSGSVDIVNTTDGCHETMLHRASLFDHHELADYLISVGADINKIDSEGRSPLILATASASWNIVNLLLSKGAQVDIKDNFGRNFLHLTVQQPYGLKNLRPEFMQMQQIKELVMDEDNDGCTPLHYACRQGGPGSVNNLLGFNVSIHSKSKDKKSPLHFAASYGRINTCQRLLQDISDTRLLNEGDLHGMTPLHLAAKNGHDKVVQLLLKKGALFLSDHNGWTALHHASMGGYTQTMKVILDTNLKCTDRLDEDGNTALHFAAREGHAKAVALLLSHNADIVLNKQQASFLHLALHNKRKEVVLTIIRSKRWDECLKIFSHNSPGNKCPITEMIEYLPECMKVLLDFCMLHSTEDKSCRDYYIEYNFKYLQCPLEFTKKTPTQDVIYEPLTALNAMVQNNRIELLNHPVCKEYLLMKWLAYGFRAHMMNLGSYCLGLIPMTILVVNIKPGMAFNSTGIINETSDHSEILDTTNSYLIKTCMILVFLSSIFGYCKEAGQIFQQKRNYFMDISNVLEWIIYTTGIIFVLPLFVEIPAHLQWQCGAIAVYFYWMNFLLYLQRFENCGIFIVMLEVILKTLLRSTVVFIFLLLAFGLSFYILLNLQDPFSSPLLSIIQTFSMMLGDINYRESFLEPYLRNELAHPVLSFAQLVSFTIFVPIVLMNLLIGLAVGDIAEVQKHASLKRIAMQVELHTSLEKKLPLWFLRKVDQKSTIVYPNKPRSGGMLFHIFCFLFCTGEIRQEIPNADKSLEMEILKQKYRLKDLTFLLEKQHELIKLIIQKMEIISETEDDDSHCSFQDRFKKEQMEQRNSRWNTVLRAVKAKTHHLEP

By EC50 is commonly meant the concentration needed to bring the measured effect to its halfway point. Broadly, the IC50 is the concentration that inhibits the measured activity by half. As for `COc1cc(CNC(=O)CCCC/C=C/C(C)C)ccc1O` [Capsaicin, trans-8-methyl-N-vanillyl-6-nonenamide, reference compound], at human TRPA1, the EC50 was > 10 µM. For the same compound, the “sedation in operant pain tolerance assay” value in data set [1] was “inflammatory injury with sedation”. In data set [1] (paw inflammatory injury (CFA)), the “sensitivity to hot plate after inflammatory injury” value is on record as “Weak trend for reduced sensitivity to”. Besides, the IC50 worked out at 387 ± 120 µM in the data set on MDA-MB-231, 200 ± 65 µM in the data set on NCI-H460 and 234 ± 31 µM in the data set on OVCAR-8. For the same compound, the “inhibition of NCI-H460 cell invasion” value in the data set on NCI-H460 cell invasion is given as “dose-dependently inhibited”. Also, the “cellular Src kinase phosphorylation levels” value in data set [2] and in [3] was “time-dependently reduced the cellular Src kinase phosphorylation levels” in each case. Besides, the “maximum tolerated dose (MTD)” value in data set [4] came out at 5 g. Moreover, the “reduction of first phase spontaneous behavior” value in data set [4] (2 hr prior to formalin) is on record as 44% reduction in first phase pain; in data set [4] (2 hr prior to formalin, listed as capsaicin) it was 44%. Also, the animals with sedation in [4] (10 g dosing group) came out at 20%. Moreover, in data set [4] (2 hr prior to formalin), the “effect in the second phase of the formalin test” value is on record as “not statistically significant”. Moreover, the “effect on formalin spontaneous pain-like behavior” value in data set [4] (2 hr prior to formalin) was “reduce spontaneous pain-like behavior in a dose-related manner”. The “animal death and sedation in formalin test” value in data set [4] (listed as capsaicin) is “One of the capsaicin treated animals died”. Also, in data set [5], the “effect on hot-plate reaction” value is listed as “reduced hotplate sensitivity compared to vehicle”. In addition, the figures for the “Pungency (SHU)” value in data set [6] and in [6] (listed as capsaicin) were 16,000,000 SHU and 16.0 million, respectively. For the same compound, the solubility in water in [7] was 13 µg/mL (≈ 42.6 µM). Further, the “decrease of tumor size” value in data set [8] is given as 50%. Moreover, the MPP in data set [9] (Moderate Pain-Producing Potency concentration: dose producing 10 normalized eye wipes) came out at 0.041 mg/mL. Also, the “Pungency RPP” value in data set [9] (Relative Pain-Producing Potency with Capsaicin set to 100) is given as 100; in [9] (Table 3 comparison, Capsaicin set to 100) it was 100.
